pIC50: −log10 of the molar value. “And” between values parts separate entries of the source, which are not always exact repeats. Identical values can stand only once.
System: 276233-004-R-J1-PDC spheroids with HUVEC/MSC, viability
Experiment: Anticancer human tumor 276233-004-R-J1-PDC patient-derived colon adenocarcinoma cell line growth inhibition [TAK]
Settings: for viability, T/C: stronger effect = lower value
From the text: Combinatorial screen of targeted agents with TAK-243 and ipatasertib in multi-cell type tumor spheroids
A high-throughput screen of multi-cell type tumor spheroids was designed to identify active combinations of targeted small molecules and TAK-243 or ipatasertib. Complex spheroids include a stromal component modeled by human endothelial cells (HUVEC) and fibroblasts modeled by human mesenchymal stem cells (MSCs). The concentration ranges selected for each drug and investigational agent were based upon clinically achievable concentrations if the clinical Cmax of the agent was known.
Compounds. The drugs and investigational agents: TAK-243 (785004), ipatasertib (767898), everolimus (733504), selumetinib (741078), bortezomib (756655), trametinib (758246), ixazomib (758254), vemurafenib (761431), dabrafenib (764134), sapanisertib (764658), alpelisib (765974), and copanlisib (816437), were obtained from the National Cancer Institute (NCI) Developmental Therapeutics Program Chemical Repository. The FDA-approved anticancer drug set is available from the NCI Developmental Therapeutics Program. […] The stock solutions were prepared in dimethyl sulfoxide (DMSO, Sigma-Aldrich, St. Louis, MO, cat. D2650) at 800-fold the tested concentration and stored at -70 degrees C prior to their use. All drugs and investigational agents were tested over a range starting from a high concentration at or near the clinical Cmax and decreasing in half-log increments. If the clinical Cmax for an agent had not been determined, the highest concentration tested was 10 microM.
NCI60 Cell Culture. NCI60 cell lines were obtained from the NCI Developmental Therapeutics Program Tumor Repository. For each lot of cells, the Repository performed Applied Biosystems AmpFLSTR Identifiler testing with PCR amplification to confirm consistency with the published Identifier STR profile for each cell line. Cells were kept in continuous culture for no more than 20 passages. The optimal seeding densities for each of the cell lines at each time point assessed were determined prior to performing the concentration response studies. Briefly, the NCI60 human tumor lines were grown as monolayers in RPMI 1640 medium supplemented with 10% FBS and 2 mmol/L L-glutamine.
An additional 2 lines were from the NCI60 cell line panel including melanomas, MALME-3M and SK-MEL-2. Pooled donor human umbilical vein endothelial cells (HUVEC, Lonza, cat. CC-2519) and human mesenchymal stem cells (hMSC, Lonza, cat. PT-2501) were purchased from Lonza (Walkersville, MD).
PDMR cell lines were grown in complete medium (DC medium): Dulbecco's modified Eagle's medium (DMEM)/F12 supplemented with 5% fetal bovine serum (FBS), 2 mM L-glutamine, 100 U/mL penicillin and 100 µg/ml streptomycin, 0.4 µg/ml hydrocortisone, 10 ng/ml epidermal growth factor (EGF) recombinant human protein, 24 µg/mL adenine, and 0.1 mg/mL primocin. During culture from frozen stock vials, PDMR cells were cultured in the same medium containing 10 µM Y-27632 (see Table 3). The PDCs were cultured in complete DMEM/F12 media without 10 microM Y-27632 dihydrochloride for at least two passages prior to the screen. The pooled donor HUVEC and hMSC were cultured in endothelial cell growth medium 2 (PromoCell, Heidelberg, Germany, cat. C-22011) and mesenchymal stem cell growth medium 2 (PromoCell, cat. C-28009), respectively. For all experiments, HUVEC and hMSC were used at passages </=5.
For the pre-screen, cell seeding densities were determined from a titration spanning the range from 5,000 to 313 cells per well. The mct-spheroids including 60% malignant cells, 25% HUVEC and 15% MSC dispensed as a mixture into U-bottom Ultra-Low Attachment 384-well plates (Corning, NY)
High-throughput Drug Combination Screening.
Prior to their inoculation into 384-well plates, malignant cells, HUVEC, and hMSC were removed from T flasks using TrypLE express (Thermo Fisher Scientific, cat. 12605036) and harvested by centrifugation for 5 min at 233 x g. […]
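Further: spheroids exposed to drugs for seven days before the viability read.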

SMILES: COc1c(OCCCN2CCOCC2)ccc2c3n(c(=NC(=O)c4cnc(N)nc4)nc12)CCN3
- viability, T/C (compound 0.00316 µM): 82.5% and 97.5%
- viability, T/C (compound 0.01 µM): 64.3% and 80.6%
- viability, T/C (compound 0.0316 µM): 55.6% and 59.9%
- viability, T/C (compound 0.1 µM): 50.8% and 57.9%
- viability, T/C (compound 0.316 µM): 43.1% and 47.6%
- viability, T/C (compound 1 µM): 47.2% and 63.4%

SMILES: Cc1nc(NC(=O)N2CCCC2C(N)=O)sc1-c1ccnc(C(C)(C)C(F)(F)F)c1 (stereo not given)
- viability, T/C (compound 0.0316 µM): 100% and 88.8%
- viability, T/C (compound 0.1 µM): 89.7% and 95.4%
- viability, T/C (compound 0.316 µM): 80% and 70.7%
- viability, T/C (compound 1 µM): 61.8% and 64.2%
- viability, T/C (compound 3.16 µM): 64% and 56.8%
- viability, T/C (compound 10 µM): 42.8% and 50.4%
- pIC50 (curve of compound): 5.20 and < 5.00

SMILES: Cn1cnc2c(F)c(Nc3ccc(Br)cc3Cl)c(C(=O)NOCCO)cc21
- viability, T/C (compound 0.00949 µM): 83.5% and 81.4%
- viability, T/C (compound 0.03 µM): 81.7% and 79.9%
- viability, T/C (compound 0.0949 µM): 62.3% and 70.2%
- viability, T/C (compound 0.3 µM): 70.4% and 70.3%
- viability, T/C (compound 0.949 µM): 57% and 62.4%
- viability, T/C (compound 3 µM): 45.9% and 44.9%
- pIC50 (curve of compound): 5.68 and 5.66

SMILES: COC1CC2CCC(C)C(O)(O2)C(=O)C(=O)N2CCCCC2C(=O)OC(C(C)CC2CCC(OCCO)C(OC)C2)CC(=O)C(C)C=C(C)C(O)C(OC)C(=O)C(C)CC(C)C=CC=CC=C1C (stereo not given) + CC(C)NCC(C(=O)N1CCN(c2ncnc3c2C(C)CC3O)CC1)c1ccc(Cl)cc1
- pIC50 (curve of first compound, second compound 0.3 µM): < 7.00
- pIC50 (curve of first compound, second compound 0.949 µM): < 7.00
- pIC50 (curve of first compound, second compound 3 µM): < 7.00
- pIC50 (curve of first compound, second compound 9.49 µM): < 7.00
- pIC50 (curve of first compound, second compound 30 µM): < 7.00
- viability, T/C (second compound 0.3 µM, first compound 0.000316 µM): 126%
- viability, T/C (second compound 0.3 µM, first compound 0.001 µM): 81.9%
- viability, T/C (second compound 0.3 µM, first compound 0.00316 µM): 75.9%
- viability, T/C (second compound 0.3 µM, first compound 0.01 µM): 79.3%
- viability, T/C (second compound 0.3 µM, first compound 0.0316 µM): 67.5%
- viability, T/C (second compound 0.3 µM, first compound 0.1 µM): 71.3%
- viability, T/C (second compound 0.949 µM, first compound 0.000316 µM): 74.3%
- viability, T/C (second compound 0.949 µM, first compound 0.001 µM): 93.3%
- viability, T/C (second compound 0.949 µM, first compound 0.00316 µM): 81.9%
- viability, T/C (second compound 0.949 µM, first compound 0.01 µM): 70.5%
- viability, T/C (second compound 0.949 µM, first compound 0.0316 µM): 68.3%
- viability, T/C (second compound 0.949 µM, first compound 0.1 µM): 58.4%
- viability, T/C (second compound 3 µM, first compound 0.000316 µM): 72.3%
- viability, T/C (second compound 3 µM, first compound 0.001 µM): 65.5%
- viability, T/C (second compound 3 µM, first compound 0.00316 µM): 57.4%
- viability, T/C (second compound 3 µM, first compound 0.01 µM): 68.2%
- viability, T/C (second compound 3 µM, first compound 0.0316 µM): 54.9%
- viability, T/C (second compound 3 µM, first compound 0.1 µM): 57.9%
- viability, T/C (second compound 9.49 µM, first compound 0.000316 µM): 55.9%
- viability, T/C (second compound 9.49 µM, first compound 0.001 µM): 57.3%
- viability, T/C (second compound 9.49 µM, first compound 0.00316 µM): 49.1%
- viability, T/C (second compound 9.49 µM, first compound 0.01 µM): 53.6%
- viability, T/C (second compound 9.49 µM, first compound 0.0316 µM): 51.4%
- viability, T/C (second compound 9.49 µM, first compound 0.1 µM): 54.1%
- viability, T/C (second compound 30 µM, first compound 0.000316 µM): 53.8%
- viability, T/C (second compound 30 µM, first compound 0.001 µM): 61%
- viability, T/C (second compound 30 µM, first compound 0.00316 µM): 48.2%
- viability, T/C (second compound 30 µM, first compound 0.01 µM): 54.2%
- viability, T/C (second compound 30 µM, first compound 0.0316 µM): 59%
- viability, T/C (second compound 30 µM, first compound 0.1 µM): 51.7%

Reference: PubChem BioAssay AID2060359 (Molecular Pharmacology Branch, DTP, NCI, 2025)
